This note sets out measurements from ChEMBL document CHEMBL1782032, “New aromatic substituted pyrazoles as selective inhibitors of human adipocyte fatty acid-binding protein” (Bioorg Med Chem Lett, 2011).

The source made the active and inactive calls. No cut-off for these calls is given here.

Assay [1] deals with RAW264.7. As to the kind of experiment: Antiinflammatory activity in […] RAW264.7 cells assessed as inhibition of lipopolysaccharide induced TNF-alpha mRNA expression by PCR. It is filed as functional, cell-based.
The test system of assay [2] is RAW264.7. Put plainly: Antiinflammatory activity in […] RAW264.7 cells assessed as inhibition of lipopolysaccharide induced MCP-1/CCL2 mRNA expression by PCR. It is filed as functional, cell-based.
Assay [3] has as its target T1, Fatty acid-binding protein, adipocyte (Homo sapiens, UniProt P15090). As to the kind of experiment: Displacement of fluorescent 1-anilinonapthalene 8-sulfonic acid from human a-FABP by fluorescence spectrophotometry.
Target sequence in this assay (P15090 whole entry): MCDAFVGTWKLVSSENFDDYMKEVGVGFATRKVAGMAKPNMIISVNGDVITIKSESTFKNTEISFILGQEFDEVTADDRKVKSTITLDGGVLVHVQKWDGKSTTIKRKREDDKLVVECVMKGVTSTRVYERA
In assay [4] the target is T2, Fatty acid-binding protein, heart (Homo sapiens, UniProt P05413). As to the kind of experiment: Displacement of fluorescent 1-anilinonapthalene 8-sulfonic acid from human h-FABP by fluorescence spectrophotometry.
Target sequence in this assay (P05413 whole entry): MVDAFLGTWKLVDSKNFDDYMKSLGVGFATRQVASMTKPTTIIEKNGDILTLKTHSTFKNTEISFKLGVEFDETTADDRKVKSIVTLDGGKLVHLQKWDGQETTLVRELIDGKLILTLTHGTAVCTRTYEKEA
Assay [5] deals with T2, Fatty acid-binding protein, heart. Put plainly: Displacement of fluorescent 1-anilinonapthalene 8-sulfonic acid from human h-FABP at 10 uM by fluorescence spectrophotometry.
Target sequence in this assay (P05413 2-133 limits assumed): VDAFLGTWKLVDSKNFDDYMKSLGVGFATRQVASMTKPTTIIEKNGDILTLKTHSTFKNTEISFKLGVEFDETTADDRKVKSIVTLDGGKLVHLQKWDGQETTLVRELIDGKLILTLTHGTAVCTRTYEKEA
Assay [6] concerns the target T1, Fatty acid-binding protein, adipocyte. As to the kind of experiment: Displacement of fluorescent 1-anilinonapthalene 8-sulfonic acid from human a-FABP at 10 uM by fluorescence spectrophotometry.
Target sequence in this assay (P15090 2-132 limits assumed): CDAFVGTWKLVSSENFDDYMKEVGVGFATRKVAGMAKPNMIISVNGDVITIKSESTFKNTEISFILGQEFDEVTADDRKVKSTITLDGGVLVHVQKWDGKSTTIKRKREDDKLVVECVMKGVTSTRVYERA

`CCc1c(-c2ccccc2)c(-c2ccccc2)nn1-c1ccccc1-c1cccc(OCC(=O)O)c1`: the inhibition entry in assay [1] and in assay [2] was “Dose-dependent effect” each time.
As a reminder, the Ki is the dissociation constant of the complex between target and ligand, obtained from inhibition or displacement. Low values mean a stronger hold on the target, high ones a looser hold on the target. As for `CCC(Oc1cccc(-c2ccccc2-c2cc(-c3cccs3)n(-c3ccc(Cl)cc3)n2)c1)C(=O)O` (configuration not stated), the inhibition constant Ki in assay [3] was determined as 6 nM; in assay [4], 3720 nM.
In the case of `O=C(O)COc1cccc(-c2ccccc2-c2cc(-c3ccccc3)n(-c3ccc(Cl)cc3)n2)c1`, the Ki in assay [3] came to 13 nM; in assay [4] it was 17000 nM.
As for `O=C(O)COc1cccc(-c2ccccc2-c2cc(-c3ccccc3)n(-c3ccccc3)n2)c1`, the values for the Ki in assay [3] and in assay [4] were 32 nM and 5240 nM, respectively.
In the same order, the values of `O=C(O)COc1cccc(-c2ccccc2-c2cc(-c3ccco3)n(-c3ccc(Cl)cc3)n2)c1` are 7 nM and 4130 nM.
In the case of `CC(Oc1cccc(-c2ccccc2-c2cc(-c3cccs3)n(-c3ccc(Cl)cc3)n2)c1)C(=O)O` (configuration not stated), the inhibition result in assay [1] and in assay [2] was “Dose-dependent effect” in each case. Moreover, the figures for the Ki in assay [3] and in assay [4] were under 1 nM and 2270 nM, respectively.
With `CC(C)(Oc1cccc(-c2ccccc2-c2cc(-c3cccs3)n(-c3ccc(Cl)cc3)n2)c1)C(=O)O`, the inhibition result in assay [1] and in assay [2] was “Dose-dependent effect” throughout. In addition, the Ki in assay [3] was under 1 nM; in assay [4] it was over 50000 nM.
For the molecule `O=C(O)COc1cccc(-c2ccccc2-c2cc(-c3cccs3)n(-c3ccc(Cl)cc3)n2)c1`, the values for the Ki in assay [3] and in assay [4] were 5 nM and 4240 nM, respectively.
On to `CCOC(=O)COc1cccc(-c2ccccc2-n2nc(-c3ccccc3)c(-c3ccccc3)c2CC)c1`, for which the outcome in assay [5] and in assay [6] was inactive.
